Results: ChEMBL document CHEMBL5390217, “Structure Confirmation of Dechlorotrichotoxin A through Stereoselective Total Synthesis” (2023)
Active and inactive are the calls of the source. The calls are words filed in the database; no cut-off is given here.

How the values were obtained:
U-937 = assay: Antiproliferative activity against human U-937 cells assessed as inhibition of cell growth at 30 uM incubated for 48 hrs in presence of 10% FBS by CCK-8 assay relative to control; assay type: functional; design: scale not given: the % may be the effect or the level left
MCF7 [1] = assay: Antiproliferative activity against human MCF7 cells assessed as inhibition of cell growth at 30 uM incubated for 48 hrs in presence of 10% FBS by CCK-8 assay relative to control; assay type: functional; design: scale not given: the % may be the effect or the level left
MCF7 [2] = assay: Antiproliferative activity against human MCF7 cells assessed as inhibition of cell growth at 30 uM incubated for 48 hrs in presence of 10% FBS by CCK-8 assay; assay type: functional, cell-based

C=CC[C@@H](O)/C(C)=C/[C@@H](C)CCC(=C)Cc1ccccc1
Activity (U-937): 44%
Activity (MCF7 [1]): 21%

C=CC[C@@H](O)/C(C)=C/[C@@H](C)CCC(=CCl)Cc1ccccc1 (mixture of isomers)
Activity (U-937): 20%
Activity (MCF7 [2]): inactive
